Assay results: US9879010B2, “Pyrrolo[2,3-b]pyridin-4-yl-amines and pyrrolo[2,3-b] pyrimidin-5-yl-amines as Janus kinase inhibitors” (Incyte Corporation, priority 2004, dated 2018)

Assays:
[1] = test system: murine skin contact delayed-type hypersensitivity (DTH) response; test: Murine DTH model for dermatitis, ear swelling; assay type: in vivo, mice
Procedure: Certain compounds herein were also tested for their efficacies (of inhibiting Jak targets) in the T-cell driven murine delayed hypersensitivity test model. The murine skin contact delayed-type hypersensitivity (DTH) response is considered to be a valid model of clinical contact dermatitis, and other T-lymphocyte mediated immune disorders of the skin, such as psoriasis (Immunol Today. 1998 January; 19(1):37-44). Murine DTH shares multiple characteristics with psoriasis, including the immune infiltrate, the accompanying increase in inflammatory cytokines, and keratinocyte hyperproliferation. Furthermore, many classes of agents that are efficacious in treating psoriasis in the clinic are also effective inhibitors of the DTH response in mice (Agents Actions. 1993 January; 38(1-2):116-21).
Test compound 3-{(3R,4R)-4-methyl-3-[methyl-(7H-pyrrolo[2,3-d]pyrimidin-4-yl)amino]-piperidin-1-yl}-3-oxo-propionitrile (see, e.g., WO 01/42246, WO 02/00661, or WO 03/48162) was administered continuously using mini-osmotic pumps to deliver the compound at 150 mg/kg/d. The inflammatory response was monitored by measuring the ear thickness prior to and after immune challenge. Differences in ear thickness were calculated for each mouse and then averaged for the group. Comparisons were made between vehicle and the treated groups in the context of the negative controls (challenged without sensitization) and therapeutic positive control mice (treated with dexamethasone or other efficacious agent).
A further murine DTH experiment was conducted by treating mice with 3-{(3R,4R)-4-methyl-3-[methyl-(7H-pyrrolo[2,3-d]pyrimidin-4-yl)amino]-piperidin-1-yl}-3-oxo-propionitrile either systemically or topically (3%, BID) after the sensitization phase was complete.

STAT3 = test: Immunohistochemistry of ear sections in murine DTH model; assay type: in vivo, mice; conditions: after the sensitization phase
Procedure: To determine if topical administration of the test compound was sufficient to inhibit activation of the Jak-STAT pathway, immunohistochemistry was carried out on fixed tissues.

[2] = test system: NOD mouse model of autoimmune type 1 diabetes; conditions: cited from earlier work
[3] = test system: myeloid dendritic cells (DCs); conditions: CD40-induced maturation of myeloid DCs; cited from earlier work
[4] = test system: IL-6-dependent MM cell lines; conditions: cited from earlier work
[5] = systemic, continuous by mini-osmotic pumps, 150 mg/kg/d

With `C[C@@H]1CCN(C(=O)CC#N)C[C@@H]1N(C)c1ncnc2[nH]ccc12` [3-{(3R,4R)-4-methyl-3-[methyl-(7H-pyrrolo[2,3-d]pyrimidin-4-yl)amino]-piperidin-1-yl}-3-oxo-propionitrile] the “inhibition of ear swelling” value ([1]; systemic administration during the challenge phase, after sensitization phase complete (FIG. 1)) was greater than 50%, the “histological analysis of hematoxolyin and eosin stained tissue sections” value [1, 5] was “near complete inhibition of ear swelling” and the “inhibition of ear swelling” value [1, 5] was 95%. For the same molecule, the “inhibition of ear swelling” value ([1]; topical administration (3%, BID) during the challenge phase, after sensitization phase complete (FIG. 1)) was greater than 50%, the “number of infiltrating cells” value (STAT3; systemic administration) was “visibly reduced” and the “phosphorylation of STAT3 in all cell types” value (STAT3; systemic administration) was “inhibited”. For the same molecule, the “number of infiltrating cells” value (STAT3; topical administration) was “visibly reduced” and the “phosphorylation of STAT3 in all cell types” value (STAT3; topical administration) was “inhibited”.

For `COc1cc2ncnc(Nc3ccc(O)cc3)c2cc1OC` [JANEX-1], the onset of diabetes [2] is listed as “delayed the onset of diabetes”.

For `COc1cc2ncnc(Nc3ccc(O)c(Br)c3)c2cc1OC` [WHI-P-154], the “CD40-induced JAK3 activity, costimulatory molecule expression, IL-12 production, allogeneic stimulatory capacity” value [3] is listed as “prevented these effects”.

In the case of `N#C/C(=C\c1ccc(O)c(O)c1)C(=O)NCc1ccccc1` [tyrphostin AG490], the “JAK2 kinase activity and ERK2 and STAT3 phosphorylation” value [4] is given as “inhibited”, the apoptosis [4] is given as “induced” and the cell proliferation [4] is given as “suppressed”.
